pIC50: −log10 of the molar value.

Here are results for two compounds from US20240423977A1, “FIVE-MEMBERED RING-FUSED SIX-MEMBERED RING COMPOUND, PREPARATION METHOD THEREFOR, AND PHARMACEUTICAL COMPOSITION AND USE THEREOF” (HANGZHOU POLYMED BIOPHARMACEUTICALS, INC., priority 2022, published 2024).

The target of one assay is kinase IRAK4 (Homo sapiens (Human), UniProt Q9NWZ3). As to the kind of experiment: Inhibitory effects of compounds on kinase activity (fluorescence microfluidic mobility detection, competitive with ATP). Type of assay: biochemical. The note with it: IRAK4 6 nM, ATP 10 μM. In outline: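 Human IRAK4 (6 nM final) in HEPES pH 7.5 buffer with MgCl2, DTT and Brij-35 was preincubated with compound (10 μM top, 4-fold dilutions to 0.38 nM, duplicate) for 10 min at room temperature. Reaction with FAM-P8 peptide (3 μM) and ATP (10 μM) ran 1 h at 28° C., then EDTA-stopped. Conversion read by microfluidic mobility shift; IC50 by four-parameter fit.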

For assay [1], the target named is IRAK4 protein in THP-1 cells (Homo sapiens (Human), UniProt Q9NWZ3). As to the kind of experiment: PROTAC-induced IRAK4 protein degradation in THP-1 cells (Western Blot). Type of assay: cell-based. The note with it: for DC50: concentration that degraded 50% of IRAK4, Western blotting, 24 hours after administration. In outline: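 THP-1 cells treated with compound at 0.3, 1 or 3 µM for 8–48 h at 37 °C. IRAK4 levels in cell lysates assessed by Western blot with anti-IRAK4 antibody, normalised to GAPDH.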
Chain of IRAK4 protein in THP-1 cells (Q9NWZ3 whole entry): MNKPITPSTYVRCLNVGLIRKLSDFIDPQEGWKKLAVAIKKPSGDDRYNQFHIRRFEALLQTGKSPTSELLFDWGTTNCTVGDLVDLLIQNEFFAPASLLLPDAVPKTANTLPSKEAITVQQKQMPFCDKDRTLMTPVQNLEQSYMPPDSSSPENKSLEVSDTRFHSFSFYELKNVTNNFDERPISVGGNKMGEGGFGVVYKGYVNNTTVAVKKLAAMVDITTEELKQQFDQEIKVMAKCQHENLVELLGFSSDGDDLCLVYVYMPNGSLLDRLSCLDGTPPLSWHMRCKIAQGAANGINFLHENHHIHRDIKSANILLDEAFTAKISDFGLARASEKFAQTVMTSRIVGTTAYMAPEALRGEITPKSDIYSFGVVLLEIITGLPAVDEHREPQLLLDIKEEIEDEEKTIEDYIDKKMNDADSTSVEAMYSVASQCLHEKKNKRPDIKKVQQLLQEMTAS

Chain of kinase IRAK4 (Q9NWZ3 whole entry): as above

On to `COc1cc2nn(C3CCN(C4CCN(C(=O)c5ccc6c(c5)C(=O)N(C5CCC(=O)NC5=O)C6=O)CC4)CC3)cc2cc1NC(=O)c1cccc(C(F)(F)F)n1` (stereo not drawn) [II-17], for which the pIC50 at kinase IRAK4 (Table 1, class symbols) was more than 7.00; at kinase IRAK4 (Table 2, substrate FAM-P8 3 μM), 7.96. Also, in assay [1] (Western blotting, 1 μM, 24 hours), the “IRAK4 degradation rate 24 hours after administration of the compounds with a concentration of 1 μM” value is less than 25%. The half-maximal degradation concentration (DC50) in assay [1] was more than 1000 nM.

As to `COc1cc2nn(C3CCN(CC(=O)N4CCN(c5cccc6c5C(=O)N(C5CCC(=O)NC5=O)C6=O)CC4)CC3)cc2cc1NC(=O)c1cccc(C(F)(F)F)n1` (stereo not drawn) [II-20], the pIC50 on kinase IRAK4 (Table 2, substrate FAM-P8 3 μM) is 8.26. Besides, in assay [1], half-maximal degradation (DC50) was put at 14.1 nM.
